{
  "source": "patent US11524956B2",
  "about": "“Alkyne substituted quinazoline compound and methods of use” (Newgen Therapeutics, Inc., priority 2011, dated 2022)",
  "key": {"NCI-N87 xenograft": {"tested_on": "NCI-N87 xenograft", "test": "In vivo efficacy in NCI-N87 xenograft mouse model", "settings": "for RTV T/C / tumor growth inhibition: day-7 after treatment", "procedure": "NCI-N87 cell line was purchased from ATCC (American Type Culture Collection) and was cultured in RPMI1640+10% FBS+1% P/S antibiotics.\nMale Balb/c nude mice, 6-8 week, 18±2 g (supplier: Shanghai SLAC Laboratory Animal Co. Ltd.) were used for the experiment. The purchased mice were adapted to the environment for 7 days before use, and were housed at 22-25° C. with humidity 40-70%, and light cycle with fluorescent light for 12-hour light (8:00-20:00) 12-hour dark. The mice have free access to food and water.\nThe cancer cells (NCI-N87) were implanted subcutaneous into the nude mice (right flank) with 5.0×10^6 cells in 0.1 ml PBS (50 mice). When the tumor size reaches a volume of 200 (150-200) mm^3, the tumor-bearing nude mice were randomly assigned into groups (10 mice/group), one group was served as vehicle, one group was administrated with Lapatinib ditosylate monohydrate (80 mg/kg, free base of Lapatinib, not salt, p.o. […]). The other two groups were administrated with NT113 (also referred to as KID 113) ((15 and 30 mg/kg, p.o.q.d, respectively). The administration period lasted for 4 weeks.\nThe mice were monitored twice daily for appearance and behavior, and for signs of morbidity and/or mortality. The tumor volume was measured twice a week, and the body weight was measured immediately before measuring the tumor volume throughout the whole study.\nAt end of the experiment (compound administration for four weeks), all the tumor-bearing mice were sacrificed by cervical dislocation under deep anesthesia. The tumor mass was resected, and weighed.\nTumor sizes were measured twice weekly in two dimensions using a caliper, and the volume was expressed in mm^3 using the formula: V=½×a×b^2 where a and b are the long and short diameters of the tumor, respectively. The tumor mass was weighed at the end of the experiment after harvested.\nV=½×a×b^2 (a, h is maximum and minimum diameters respectively).\nRTV (Relative Tumor Volume)=Vt/Vo • Vo is the tumor volume when the test article is initial administrated • Vt is the tumor volume of every measurement day after test article administration\nT/C (%)=TRTV/CRTV×100% • TRTV: RTV of test article-treatment group; CRTV: RTV of control group Inhibition rate (%)=(average tumor volume of control group average cancer volume of test article treatment group)/average tumor volume of control group×100%\nThe tumor-bearing mice were treated for 4 weeks with different doses of KU (15 mg/kg, 30 mg/kg, […]), qd) and Lapatinib KUA-1, 80 mg/kg, p.o., bid, 7 days/week. At the day-7 after treatment, the RTV TIC KU113 (15 mg/kg, 30 mg/kg) groups were <30%, and the tumor growth inhibition was >70%. but the RTV TIC was 31% and tumor growth inhibition rat was 69% in the lapatinib group. The same result was observed as well when it comes to the tumor weight. On day 28 after treatment, all the tumor-bearing mice were sacrificed, and all the tumor masses were harvested to weigh."}, "BT474 cells": {"tested_on": "BT474 cells", "test": "Cell proliferation inhibition assay for BT474 (CCK-8)", "format": "cell-based", "settings": "Homo sapiens, BT-474; 72h", "procedure": "Human breast cancer BT474 cells was cultured in low glucose DMEM (Life Technologies 12320-032) containing 10% fetal bovine serum (FBS) at 37° C. in a humidified 10% CO2, 90% air incubator. Cells were harvested using trypsin EDTA, counted using a haemocytometer, and plated 10000 cell/well in a 96-well clear tissue culture plate. The cells were incubated for 24 h at 37° C. to allow adherence. A serials of concentrations of each compound (ranging from 30 um to 0.16 nM, 5-fold dilution) in 96-well plate, and incubated for 72h. Each concentration was tested in triplicate wells. During the cell proliferation assay, BT474 cells were cultured in low-glucose DMEM containing 5% FBS, 50 ug/ml gentamicin, and 0.3% v/v DMSO. The culture medium was removed via aspiration, and the cell viability was detected by using CCK-8 cell proliferation kit. The IC50 value measured for each compound in Examples 1 to 7 is <100 nM."}},
  "data": [
    {"compound": "CN(C)C/C=C/C(=O)Nc1cc2c(Nc3ccc(F)c(Cl)c3)ncnc2cc1C#C[C@@H]1[C@H]2COC[C@@H]12", "note": "[Example 4, (E)-N-(4-(3-chloro-4-fluorophenylamino)-7-(2-((1R,5S,6s)-3-oxa-bicyclo[3.1.0]hexan-6-yl)ethynyl)quinazolin-6-yl)-4-(dimethylamino)but-2-enamide]", "values": [
      {"measurement": "tolerability (side effect)", "setting": "NCI-N87 xenograft; 15 mg/kg, po, qd", "result": "without predefined side effect"},
      {"measurement": "body weight after dosing was stopped", "setting": "NCI-N87 xenograft; 30 mg/kg group, by day 28", "result": "recovered to normal"},
      {"measurement": "body weight effect", "setting": "NCI-N87 xenograft; 30 mg/kg, p.o., qd, 7 days/week", "result": "body weight loss"},
      {"measurement": "RTV T/C", "setting": "NCI-N87 xenograft; 15 mg/kg po qd", "result": "< 30", "unit": "%"},
      {"measurement": "tumor growth inhibition", "setting": "NCI-N87 xenograft; 15 mg/kg po qd", "result": "> 70", "unit": "%"},
      {"measurement": "RTV T/C", "setting": "NCI-N87 xenograft; 30 mg/kg po qd", "result": "< 30", "unit": "%"},
      {"measurement": "tumor growth inhibition", "setting": "NCI-N87 xenograft; 30 mg/kg po qd", "result": "> 70", "unit": "%"},
      {"measurement": "IC50", "setting": "BT474 cells", "result": "< 100", "unit": "nM"}
    ]}
  ]
}
